Here are results for 20 molecules from ChEMBL document CHEMBL1135630 (J Med Chem, 2002).

The target in assay [1] is T1, Neuronal acetylcholine receptor (Rattus norvegicus) (UniProt P04757+P09483+P12389+P12390+P12392+P43144+Q9JLB5+P12391+P43143+P20420+Q05941). The experiment in a line: Agonist activity against alpha beta Nicotinic acetylcholine receptor (nAChR) in male rat cerebral cortex in antinociceptive assay in hot plate test at a dose of 10 mg/kg. The arrangement: dose 10 mg/kg. It is filed as functional, organism-based. For orientation: Thermal pain tests record how soon the animal reacts.

Assay [2] is described as follows: Inhibition of [3H]- epibatidine binding at the Nicotinic acetylcholine receptor alpha beta (nAChR) in male rat cerebral cortex. Format: tissue-based.
In assay [3] the target is T1, Neuronal acetylcholine receptor (Rattus norvegicus). The experiment in a line: Agonist activity against alpha beta Nicotinic acetylcholine receptor (nAChR) in male rat cerebral cortex in antinociceptive assay in hypothermia test at a dose of 10 mg/kg. Format: functional, organism-based. The arrangement: dose 10 mg/kg.
The target is the same in assay [4]. The experiment in a line: Agonist activity against alpha beta Nicotinic acetylcholine receptor (nAChR) in male rat cerebral cortex in antinociceptive assay in tail flick test at a dose of 10 mg/kg. It is filed as functional, organism-based. More on the design: dose 10 mg/kg.
Assay [5] is filed under the species Rattus norvegicus. As to the kind of experiment: Agonist activity against alpha beta Nicotinic acetylcholine receptor (nAChR) in male rat cerebral cortex in antinociceptive assay in hot plate test. Format: functional.
For assay [6], the species on record is Rattus norvegicus. The experiment in a line: Agonist activity against alpha beta Nicotinic acetylcholine receptor (nAChR) in male rat cerebral cortex in antinociceptive assay in tail flick test. It is filed as functional.
For assay [7], the species on record is Rattus norvegicus. As to the kind of experiment: Agonist activity against alpha beta Nicotinic acetylcholine receptor (nAChR) in male rat cerebral cortex in antinociceptive assay in hypothermia test. Format: functional.
The target of assay [8] is Neuronal acetylcholine receptor subunit alpha-7 (Rattus norvegicus, UniProt Q05941). The experiment in a line: Inhibition of [125I]- iodo-MLA binding at the Nicotinic acetylcholine receptor alpha-7 (nAChR) in male rat cerebral cortex. It is filed as tissue-based.
Chain of Neuronal acetylcholine receptor subunit alpha-7 (Q05941 whole entry): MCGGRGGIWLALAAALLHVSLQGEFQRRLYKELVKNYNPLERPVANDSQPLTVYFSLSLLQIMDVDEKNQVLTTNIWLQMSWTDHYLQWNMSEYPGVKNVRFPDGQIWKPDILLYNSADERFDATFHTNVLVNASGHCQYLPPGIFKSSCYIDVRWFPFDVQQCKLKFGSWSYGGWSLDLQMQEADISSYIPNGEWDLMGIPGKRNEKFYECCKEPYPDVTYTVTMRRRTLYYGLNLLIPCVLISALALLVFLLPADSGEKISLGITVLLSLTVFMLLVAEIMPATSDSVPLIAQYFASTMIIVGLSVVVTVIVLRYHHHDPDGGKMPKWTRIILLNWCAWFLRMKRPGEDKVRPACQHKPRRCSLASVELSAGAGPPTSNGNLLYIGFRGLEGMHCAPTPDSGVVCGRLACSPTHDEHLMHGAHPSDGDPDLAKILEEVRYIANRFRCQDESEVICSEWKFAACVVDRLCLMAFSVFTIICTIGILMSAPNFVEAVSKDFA
The species named for assay [9] is Rattus norvegicus. As to the kind of experiment: Agonist activity against alpha beta Nicotinic acetylcholine receptor (nAChR) in male rat cerebral cortex using antinociceptive assay in hypothermia test. Format: functional.
For assay [10], the species on record is Rattus norvegicus. As to the kind of experiment: Agonist activity against alpha beta Nicotinic acetylcholine receptor (nAChR) in male rat cerebral cortex using antinociceptive assay in tail flick test. It is filed as functional.
The species named for assay [11] is Rattus norvegicus. The experiment in a line: Agonist activity against alpha beta Nicotinic acetylcholine receptor (nAChR) in male rat cerebral cortex using antinociceptive assay in hot plate test. Format: functional.
The subject of assay [12] is Rattus norvegicus. As to the kind of experiment: Antagonist activity after subcutaneously administration of nicotine at a dose of 2.5 mg/kg in tail-flick test (value in parentheses is 95% confidence limits). Format: functional. The conditions noted are these: route subcutaneous.
Assay [13] relates to Rattus norvegicus. The experiment in a line: Antagonist activity after subcutaneously administration of nicotine at a dose of 2.5 mg/kg in hot- plate test, the values expressed as 95% confidence limit (value in parentheses is 95% confidence limits). It is filed as functional. Particulars: route subcutaneous.
Assay [14] relates to Rattus norvegicus. As to the kind of experiment: Antagonist activity after subcutaneously administration of nicotine at a dose of 2.5 mg/kg in hotplate test at a concentration of 0.05 mg/kg. Format: functional. The arrangement: scale not given: the % may be the effect or the level left.
Assay [15] relates to Rattus norvegicus. The experiment in a line: Antagonist activity after subcutaneously administration of nicotine at a dose of 2.5 mg/kg in tail-flick test at a concentration of 0.05 mg/kg. Format: functional. More on the design: scale not given: the % may be the effect or the level left.
Assay [16] has as its system Rattus norvegicus. As to the kind of experiment: Antagonist activity after subcutaneously administration of nicotine at a dose of 2.5 mg/kg in tail-flick test at a concentration of 0.01 mg/kg. Format: functional. More on the design: scale not given: the % may be the effect or the level left.
For assay [17], the system named is Rattus norvegicus. As to the kind of experiment: Antagonist activity after subcutaneously administration of nicotine at a dose of 2.5 mg/kg in hot- plate test at a concentration of 0.01 mg/kg. It is filed as functional. The arrangement: scale not given: the % may be the effect or the level left.
The subject of assay [18] is Rattus norvegicus. As to the kind of experiment: Antagonist activity after subcutaneously administration of nicotine at a dose of 2.5 mg/kg in hot- plate test at a concentration of 0.05 mg/kg. It is filed as functional. More on the design: scale not given: the % may be the effect or the level left.

As to `Oc1ncc([C@H]2CC3CCC2N3)cc1Br` (stereo partly drawn), the Effect in assay [1] was 9%; in assay [3] it was 0%; in assay [4], 1%. The affinity in assay [2] corresponds to a Ki of 14.4 nM.

Regarding `Oc1ccc([C@H]2CC3CCC2N3)cn1` (stereo partly drawn), the ED50 was found to be 500 µg/kg in the assay filed under Rattus norvegicus [5], 1500 µg/kg in the assay listed under Rattus norvegicus [6] and 1200 µg/kg in the assay filed under Rattus norvegicus [7]. Moreover, the Ki in assay [2] was 1.5 nM; in [8], 675 nM.

Take `Nc1ccc([C@H]2CC3CCC2N3)cn1` (stereo partly drawn): the inhibitory constant (Ki) in assay [2] was found to be 1.3 nM.

For `Nc1ncc([C@H]2CC3CCC2N3)cc1Br` (stereo partly drawn), the ED50 is 75 µg/kg in the assay listed under Rattus norvegicus [9], 70 µg/kg in the assay filed under Rattus norvegicus [10] and 50 µg/kg in the assay filed under Rattus norvegicus [11]. The molecule also gave a Ki in assay [2] of 0.29 nM.

In the case of `Fc1ccc(C2CC3CCC2N3)cn1` (stereo not drawn), the Ki in assay [2] was 0.027 nM.

`Nc1cc([C@H]2CC3CCC2N3)cnc1Cl` (stereo partly drawn): the ED50 in the assay filed under Rattus norvegicus [9] came to 17 µg/kg; in the assay filed under Rattus norvegicus [10], 20 µg/kg; in the assay listed under Rattus norvegicus [11], 20 µg/kg. In addition, the Ki in assay [2] is 0.001 nM; in assay [8] it was 13.9 nM. Further, the results for the AD50 in the assay on Rattus norvegicus [12] and with Rattus norvegicus [13] were 0.03 µg/kg and 0.6 µg/kg, respectively.

In the case of `Clc1ccc(C2CC3CCC2N3)cn1` (racemic) [EPIBATIDINE], the ED50 in the assay listed under Rattus norvegicus [5] is 4 µg/kg; in the assay listed under Rattus norvegicus [6] it was 6 µg/kg; in the assay listed under Rattus norvegicus [7], 4 µg/kg.

Regarding `Clc1cc([C@H]2CC3CCC2N3)cnc1Cl` (stereo partly drawn), the ED50 was 20 µg/kg in the assay listed under Rattus norvegicus [9], 50 µg/kg in the assay listed under Rattus norvegicus [10] and 30 µg/kg in the assay filed under Rattus norvegicus [11]. In addition, the Ki in assay [2] came to 0.014 nM; in assay [8], 1.12 nM.

Regarding `Brc1cc([C@H]2CC3CCC2N3)cnc1I` (stereo partly drawn), the ED50 in the assay listed under Rattus norvegicus [9] amounted to 40 µg/kg; in the assay filed under Rattus norvegicus [10], 270 µg/kg; in the assay filed under Rattus norvegicus [11] it was 240 µg/kg. This molecule also gave a Ki in [2] of 0.027 nM. Besides, the Effect in the assay with Rattus norvegicus [14] is reported as 0%; with Rattus norvegicus [15], 4%.

In turn, `Fc1cc([C@H]2CC3CCC2N3)cnc1F` (stereo partly drawn) returned a Ki in assay [2] of 0.055 nM.

On to `Fc1cc(C2CC3CCC2N3)cnc1Cl` (stereo not drawn), for which the results for the ED50 in the assay listed under Rattus norvegicus [9], in the assay filed under Rattus norvegicus [10] and in the assay filed under Rattus norvegicus [11] were 6 µg/kg, 8 µg/kg and 9 µg/kg, respectively. Moreover, the Ki in assay [2] is 0.025 nM; in assay [8] it was 3.43 nM.

`Brc1ccc([C@H]2CC3CCC2N3)cn1` (stereo partly drawn): the affinity in assay [2], expressed as Ki, was 0.023 nM.

As for `Brc1cc([C@H]2CC3CCC2N3)cnc1Br` (stereo partly drawn), in assay [2], the Ki worked out at 0.015 nM.

Consider `Clc1ncc(C2CC3CCC2N3)cc1I` (stereo not drawn), for which the results for the ED50 in the assay listed under Rattus norvegicus [9], in the assay filed under Rattus norvegicus [10] and in the assay listed under Rattus norvegicus [11] were 27 µg/kg, 240 µg/kg and 140 µg/kg, respectively. The molecule further yielded a Ki in assay [2] of 0.008 nM. The Effect in the assay on Rattus norvegicus [16] came to 4%; with Rattus norvegicus [17] it was 0%.

Consider `Clc1ncc([C@H]2CC3CCC2N3)cc1Br` (stereo partly drawn), for which the values for the ED50 in the assay filed under Rattus norvegicus [9], in the assay filed under Rattus norvegicus [10] and in the assay listed under Rattus norvegicus [11] were 40 µg/kg, 30 µg/kg and 20 µg/kg, respectively. Besides, the affinity in [2] corresponds to a Ki of 0.013 nM.

For `Ic1ccc(C2CC3CCC2N3)cn1` (stereo not drawn), affinity in assay [2] was put at a Ki of 0.07 nM.

Take `Nc1ncc([C@H]2CC3CCC2N3)cc1I` (stereo partly drawn): the ED50 in the assay filed under Rattus norvegicus [9] came to 300 µg/kg; in the assay filed under Rattus norvegicus [10], 650 µg/kg; in the assay filed under Rattus norvegicus [11] it was 500 µg/kg. Also, the Ki in assay [2] was found to be 0.52 nM; in assay [8], 34.1 nM.

In the case of `Fc1ncc([C@H]2CC3CCC2N3)cc1Br` (stereo partly drawn), the ED50 in the assay filed under Rattus norvegicus [9] amounted to 10 µg/kg; in the assay listed under Rattus norvegicus [10], 700 µg/kg; in the assay listed under Rattus norvegicus [11], 1200 µg/kg. The molecule further showed a Ki in assay [2] of 0.071 nM. Also, the Effect with Rattus norvegicus [15] and in the assay on Rattus norvegicus [18] was 0% throughout.

For `Fc1ncc([C@H]2CC3CCC2N3)cc1Cl` (stereo partly drawn), in [2], the affinity corresponds to a Ki of 0.02 nM.

As for `Fc1ncc([C@H]2CC3CCC2N3)cc1I` (stereo partly drawn), the ED50 in the assay filed under Rattus norvegicus [9] was 300 µg/kg; in the assay listed under Rattus norvegicus [10] it was 700 µg/kg; in the assay filed under Rattus norvegicus [11] it was 900 µg/kg. Besides, the affinity in [2] corresponds to a Ki of 0.051 nM. Further, the Effect with Rattus norvegicus [15] and with Rattus norvegicus [18] was 0% in each case.

One may read the Ki as the dissociation constant of the complex between target and ligand, obtained from inhibition or displacement. By ED50 is commonly meant the dose at which the effect has come halfway, by size or by number of responders.
